Data on 26 molecules can be found in patent US11014917B2, “5-fluoro-c-(aryl or heterocyclyl)-glycoside derivatives useful as dual SGLT1 / SGLT2 modulators” (Janssen Pharmaceutica NV, priority 2017, dated 2021).

Assay [1] concerns the target T1, human SGLT1 (Homo sapiens, UniProt P13866).
T1 construct: expressed in transfected cells
T1 sequence (P13866 1-664): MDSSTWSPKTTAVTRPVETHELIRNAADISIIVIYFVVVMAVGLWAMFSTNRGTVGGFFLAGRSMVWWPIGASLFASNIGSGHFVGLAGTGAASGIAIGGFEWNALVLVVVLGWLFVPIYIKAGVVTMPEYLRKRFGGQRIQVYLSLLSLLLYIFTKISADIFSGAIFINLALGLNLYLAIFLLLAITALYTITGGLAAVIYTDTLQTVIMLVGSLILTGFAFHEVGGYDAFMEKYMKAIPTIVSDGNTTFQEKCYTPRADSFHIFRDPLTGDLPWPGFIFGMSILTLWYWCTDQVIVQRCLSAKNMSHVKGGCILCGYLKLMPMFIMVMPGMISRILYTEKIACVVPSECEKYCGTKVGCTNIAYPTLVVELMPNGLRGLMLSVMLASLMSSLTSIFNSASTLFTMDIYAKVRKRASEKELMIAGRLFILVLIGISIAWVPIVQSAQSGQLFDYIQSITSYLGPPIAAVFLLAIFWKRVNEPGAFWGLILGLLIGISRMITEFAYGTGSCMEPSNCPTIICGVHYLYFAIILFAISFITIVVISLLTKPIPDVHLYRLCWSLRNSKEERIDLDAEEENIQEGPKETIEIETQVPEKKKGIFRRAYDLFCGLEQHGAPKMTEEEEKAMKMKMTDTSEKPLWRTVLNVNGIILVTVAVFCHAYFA
Description: SGLT1 assay: Na-dependent 14C-AMG uptake in CHO-K1 cells stably expressing human SGLT1. The assay is classed as cell-based. Conditions: for SGLT1 %-inhibition / inhibition at 0.3 µM: @ 0.3 μM; for pIC50: average if tested more than once. The protocol: (§1) The ability of the compounds of formula (I) of the present invention to treat an SGLT-mediated condition was determined using the following procedures:
(§2) SGLT1 and SGLT2 were cloned in form of cDNA from human small intestine (Genbank M24847), and from human kidney (Genbank M95549), respectively. Subsequently, each full cDNA was subcloned into pcDNA with each construct's integrity verified through follow-on sequencing. To generate CHO-K1 cells that stably express human SGLT1 or human SGLT2, CHO-K1 cells were transfected using DMRIE-C reagent (Life Technologies, Gaithersburg, Md.). Transfected cells were then selected in the presence of 500 μg/ml of the Geneticin (G418 Cellgro Catalog No. 30234-Cl)
(§3) Individual clones were then characterized using the following cell-based assay for sodium-dependent glucose transport:
(§4) Inhibition of SGLT1 and SGLT2 activity was assessed in CHO K1 cells stably expressing either human SGLT1 or SGLT2, using the SGLT specific glucose analog methyl-glucopyranoside (Sigma Catalog No. M-9376). Cells were plated (45,000 cells/well) in white wall 96-well plates (COSTAR, Cat #3903) for 24 hours in growth medium, then a final concentration of 10 mM Na-Butyrate (ALDRICH Cat #30341-0) was added. The cells were incubated for 24 hours. On the day of the assay, cells were rinsed and treated with test compounds (at concentrations of 0.001 μM to 10 μM) in assay buffer (50 mM HEPES, 20 mM Tris base, 5 mM KCl, 1 mM MgCl2, 1 mM CaCl2 and 137 mM NaCl, pH 7.4) for 10 minutes. Cells were then incubated with ^14C-a-methyl-d-glucopyranoside (AMG, Amersham Catalog No. CFB 76), using 0.07 μCi per well in 500 μM AMG final concentration. The cells were incubated for 2 hours at 37° C. with 5% CO2 and washed two times with ice-cold Phosphate Buffer Solution (Cellgro Catalog No. 21030-CV). The cells were then solubilized by adding 60 μl of MICROSCINT™20 and the Na-dependent ^14C-AMG uptake was quantified by measuring radioactivity. Plates were counted in a TopCount (Packard, Meriden, Conn.)
(§5) Representative compounds of the present invention were tested according to the procedures as described in Biological Example 1 and 2 above, with results as listed in Table 5, below. Results are reported as the %-inhibition or IC50 value. Variability for the functional assay was typically within 20%.

Assay [2] deals with T2, human SGLT2 (Homo sapiens, UniProt P31639).
T2 construct: expressed in transfected cells
T2 sequence (P31639 1-672): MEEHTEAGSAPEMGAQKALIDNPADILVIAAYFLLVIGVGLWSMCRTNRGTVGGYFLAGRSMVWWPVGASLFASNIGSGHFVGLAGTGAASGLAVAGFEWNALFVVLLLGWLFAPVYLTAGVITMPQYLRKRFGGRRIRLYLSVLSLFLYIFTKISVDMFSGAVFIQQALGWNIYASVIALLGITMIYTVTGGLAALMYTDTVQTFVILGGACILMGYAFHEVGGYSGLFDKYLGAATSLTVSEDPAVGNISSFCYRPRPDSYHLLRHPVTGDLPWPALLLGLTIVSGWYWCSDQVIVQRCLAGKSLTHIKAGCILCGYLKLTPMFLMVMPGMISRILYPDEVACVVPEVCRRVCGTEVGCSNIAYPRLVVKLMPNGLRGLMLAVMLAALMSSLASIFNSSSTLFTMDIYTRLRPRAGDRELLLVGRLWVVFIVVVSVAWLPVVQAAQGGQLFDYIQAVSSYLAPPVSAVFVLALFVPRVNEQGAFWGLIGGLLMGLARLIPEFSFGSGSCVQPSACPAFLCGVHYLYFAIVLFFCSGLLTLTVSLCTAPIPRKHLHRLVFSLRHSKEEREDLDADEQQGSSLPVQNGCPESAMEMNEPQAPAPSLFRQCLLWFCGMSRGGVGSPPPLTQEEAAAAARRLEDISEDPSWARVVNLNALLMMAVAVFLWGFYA
Description: SGLT2 assay: Na-dependent 14C-AMG uptake in CHO-K1 cells stably expressing human SGLT2. As to conditions: for SGLT2 %-inhibition: @ 0.3 μM; for pIC50: average if tested more than once. The assay is classed as cell-based. Here is the method:
as §1, §2, §3, §4, §5

pIC50: −log10 of the molar value.

`CC1COc2c(Cc3ccc4c(c3)OCCO4)cc(C3OC(CO)C(F)C(O)C3O)cc21` (mixture of isomers) [Compound 95] registered an SGLT1 %-inhibition in assay [1] of 45.3% @ 0.3 μM. This molecule registered an SGLT2 %-inhibition in assay [2] of 62.7% @ 0.3 μM.

As for `COc1cc(O)c(C2OC(C(C)O)C(F)C(O)C2O)cc1Cc1cc2ccccc2s1` (single isomer, unassigned) [Compound 52], the negative logarithm of the IC50 (pIC50) was 7.82 in assay [1] and 8.05 in assay [2].

As to `COc1cc(O)c(C2OC(C(C)O)C(F)C(O)C2O)cc1Cc1cc2ccccc2s1` (single isomer, unassigned) [Compound 53], the figures for the pIC50 in assay [1] and in assay [2] were 6.98 and 7.59, respectively.

Turning to `COc1cc(OCC#N)c([C@@H]2O[C@H](C(C)O)[C@@H](F)[C@H](O)[C@H]2O)cc1Cc1cc2ccccc2s1` (single isomer, unassigned) [Compound 71], the SGLT1 %-inhibition in assay [1] is reported as 76.4% @ 0.3 μM. The SGLT2 %-inhibition in assay [2] came to 30.0% @ 0.3 μM.

`COc1cc(OC)c(C2OC(C(C)O)C(F)C(O)C2O)cc1Cc1cc2ccccc2s1` (single isomer, unassigned) [Compound 72]: the pIC50 in assay [1] is 6.90; in assay [2], 7.62.

In the case of `COc1cc(O)c([C@@H]2O[C@H](CO)[C@@H](F)[C@H](O)[C@H]2O)cc1Cc1cc2ccccc2s1` [Compound 2, (2S,3R,4R,5S,6R)-2-(5-(benzo[b]thiophen-2-ylmethyl)-2-hydroxy-4-methoxyphenyl)-5-fluoro-6-(hydroxymethyl)tetrahydro-2H-pyran-3,4-diol], the negative logarithm of the IC50 (pIC50) in assay [1] was 8.05; in assay [2], 8.10.

Consider `Cc1cc(O)c([C@@H]2O[C@H](CO)[C@@H](F)[C@H](O)[C@H]2O)cc1Cc1cc2ccccc2s1` [Compound 4], for which the negative logarithm of the IC50 (pIC50) in assay [1] was 7.85; in assay [2] it was 8.40.

With `OC[C@H]1O[C@@H](c2cc(Cc3cc4ccccc4s3)c(Cl)cc2O)[C@H](O)[C@@H](O)[C@@H]1F` [Compound 7], the negative logarithm of the IC50 (pIC50) in assay [1] is 7.74; in assay [2], 8.22.

Turning to `COC[C@H]1O[C@@H](c2cc(Cc3cc4ccccc4s3)c(OC)cc2O)[C@H](O)[C@@H](O)[C@@H]1F` [Compound 9, (2S,3R,4R,5S,6R)-2-[5-(1-benzothiophen-2-ylmethyl)-2-hydroxy-4-methoxyphenyl]-5-fluoro-6-(methoxymethyl)oxane-3,4-diol], the negative-log IC50 (pIC50) is 6.90 in assay [1] and 6.97 in assay [2].

In the case of `COc1cc(O)c([C@@H]2O[C@H](C)[C@@H](F)[C@H](O)[C@H]2O)cc1Cc1cc2ccccc2s1` [Compound 10], the pIC50 in assay [1] is 7.07; in assay [2], 7.09.

With `COc1cc(O)c([C@@H]2O[C@H](CF)[C@@H](F)[C@H](O)[C@H]2O)cc1Cc1cc2ccccc2s1` [Compound 11, (2S,3R,4R,5S,6R)-2-[5-(1-benzothiophen-2-ylmethyl)-2-hydroxy-4-methoxyphenyl]-5-fluoro-6-(fluoromethyl)oxane-3,4-diol], the negative logarithm of the IC50 (pIC50) in assay [1] was 7.04; in assay [2], 7.23.

Consider `COc1cc(OC)c([C@@H]2O[C@H](CO)[C@@H](F)[C@H](O)[C@H]2O)cc1Cc1cc2ccccc2s1` [Compound 12], for which the negative logarithm of the IC50 (pIC50) in assay [1] is 7.00; in assay [2], 7.62.

As to `Cc1c(Cc2cc3ccccc3s2)cc([C@@H]2O[C@H](CO)[C@@H](F)[C@H](O)[C@H]2O)c(O)c1C` [Compound 13], the pIC50 in assay [1] is 7.82; in assay [2] it was 8.15.

As for `COc1c(Cc2cc3ccccc3s2)cc([C@@H]2O[C@H](CO)[C@@H](F)[C@H](O)[C@H]2O)c(O)c1C` [Compound 14], the SGLT1 %-inhibition in assay [1] was 69.3% @ 0.3 μM. Moreover, the SGLT2 %-inhibition in assay [2] is listed as 36.0% @ 0.3 μM.

As for `COc1c(Cc2cc3ccccc3s2)cc([C@@H]2O[C@H](CO)[C@@H](F)[C@H](O)[C@H]2O)c(OC)c1C` [Compound 15], the pIC50 is 7.00 in assay [1] and 7.17 in assay [2].

Consider `Cc1cc(O)c([C@@H]2O[C@H](C)[C@@H](F)[C@H](O)[C@H]2O)cc1Cc1cc2ccccc2s1` [Compound 16, (2S,3R,4R,5S,6R)-2-(5-(benzo[b]thiophen-2-ylmethyl)-2-hydroxy-4-methylphenyl)-5-fluoro-6-methyl-tetrahydro-2H-pyran-3,4-diol], for which the results for the pIC50 in assay [1] and in assay [2] were 6.95 and 7.54, respectively.

For the molecule `COc1cc(C)c(Cc2cc3ccccc3s2)cc1[C@@H]1O[C@H](CO)[C@@H](F)[C@H](O)[C@H]1O` [Compound 18], the pIC50 is 7.17 in assay [1] and 7.74 in assay [2].

For the molecule `COC[C@H]1O[C@@H](c2cc(Cc3cc4ccccc4s3)c(C)cc2O)[C@H](O)[C@@H](O)[C@@H]1F` [Compound 19], the SGLT1 %-inhibition in assay [1] came out at 47.6% @ 0.3 μM. Further, the SGLT2 %-inhibition in assay [2] is listed as 68.1% @ 0.3 μM.

Turning to `Cc1cc(O)c([C@@H]2O[C@H](CF)[C@@H](F)[C@H](O)[C@H]2O)cc1Cc1cc2ccccc2s1` [Compound 20, (2S,3R,4R,5S,6R)-2-(5-(benzo[b]thiophen-2-ylmethyl)-2-hydroxy-4-methylphenyl)-5-fluoro-6-(fluoromethyl)-tetrahydro-2H-pyran-3,4-diol], the pIC50 in assay [1] was 6.94; in assay [2], 6.40.

As to `COc1cc(Cl)c([C@@H]2O[C@H](CO)[C@@H](F)[C@H](O)[C@H]2O)cc1Cc1cc2ccccc2s1` [Compound 21], the pIC50 in assay [1] is 6.50; in assay [2], 6.95.

In the case of `COc1cc(O)c([C@@H]2O[C@H](CC#N)[C@@H](F)[C@H](O)[C@H]2O)cc1Cc1cc2ccccc2s1` [Compound 22], in assay [1], at 0.3 µM the inhibition was 62.7%. The negative-log IC50 (pIC50) in assay [2] was 6.62.

Take `Cc1cc(O)c([C@@H]2O[C@H](CC#N)[C@@H](F)[C@H](O)[C@H]2O)cc1Cc1cc2ccccc2s1` [Compound 23]: the inhibition at 0.3 µM in assay [1] came out at 65.2%. Further, in assay [2], the pIC50 is 7.16.

`Cc1cc(O)c([C@@H]2O[C@H](CN)[C@@H](F)[C@H](O)[C@H]2O)cc1Cc1cc2ccccc2s1` [Compound 24]: the negative logarithm of the IC50 (pIC50) is 6.01 in assay [1] and 6.48 in assay [2].

Regarding `COc1cc(O)c([C@@H]2O[C@H](CN)[C@@H](F)[C@H](O)[C@H]2O)cc1Cc1cc2ccccc2s1` [Compound 28], the SGLT2 %-inhibition in assay [2] was 50.3% @ 0.3 μM.

With `CCOc1cc(O)c([C@@H]2O[C@H](CO)[C@@H](F)[C@H](O)[C@H]2O)cc1Cc1cc2ccccc2s1` [Compound 30], the SGLT2 %-inhibition in assay [2] is reported as 51.0% @ 0.3 μM.

As for `CC(C)Oc1cc(O)c([C@@H]2O[C@H](CO)[C@@H](F)[C@H](O)[C@H]2O)cc1Cc1cc2ccccc2s1` [Compound 32], the SGLT2 %-inhibition in assay [2] worked out at 15.3% @ 0.3 μM.
